Measured values: US10766879B2, “Pyrimidine derivatives as kinase inhibitors and their therapeutical applications” (NantBioScience, Inc., priority 2015, dated 2020)

Columns and labels:
c-Src kinase = target: T1, c-Src kinase (Homo sapiens, UniProt P12931); experiment: KinaseProfiler kinase inhibition assay, c-Src; assay type: biochemical; details: 1 μM compound; read-out: % Inhibition @1 μM cSrc
T1 construct: purchased Millipore (KinaseProfiler Service)

phospho-FGFR2 = target: T2, phospho-FGFR2 (Homo sapiens, UniProt P21802); experiment: phospho-FGFR ELISA on Kato III cells; assay type: cell-based; details: read-out: EC50 (nM) P-FGFR2, Kato III cells
T2 construct: endogenous in cells; host or cells: Kato III cells
Protocol: For the phospho-FGFR, the following assay Protocol was used. 25,000 cells are seeded in 90 μl/well in 96-well microplates, which are then placed in a humidified CO2 incubator at 37° C. overnight. 96-well ELISA plates (Mesoscale Discovery) are coated with capture antibody (R&D Systems Duo-Set) at 4 μg/ml, 30 μl/well. The next day, 10 μl/well of 10× concentrated drug is added and the plates are returned to the incubator for […]. ELISA plates are washed using an automated plate washer (BioTek Instruments). After 30 min, cells are inverted and gently tapped to remove excess medium, and immediately placed on ice. 30 μl mPer cell lysis reagent (Thermo Scientific) with protease and phosphatase inhibitors is added/well. After 15 min on ice, lysates are mixed and 30 μl transferred to the ELISA plate. Plates are incubated for 2 hr, washed, and 30 μl/well detection antibody is added. After 1 hr, plates are washed and 30 μl “SulfoTag” (MesoScale Discovery) detection reagent is added. After 1 hr, plates are washed and 150 μl/well read solution is added. Electrochemiluminescence is determined on the Mesoscale Discovery Sector Imager 2000. Data are analyzed using Excel (Microsoft), and EC50 values are determined using Prism (Graphpad).

Alk kinase = target: T3, Alk kinase (Homo sapiens, UniProt Q9UM73); experiment: KinaseProfiler kinase inhibition assay, Alk; assay type: biochemical; details: 1 μM compound
T3 construct: purchased Millipore (KinaseProfiler Service)

KG1a = experiment: CellTiterblue viability, 72 hr, KG1a; assay type: cell-based; details: Homo sapiens, KG-1a, KG1a cells
Protocol: (§1) A number of studies were performed to analyze the consequences of tyrosine kinase inhibition in cell lines. To do this, 1000 cells are seeded in 27 μl/well in 384-well microplates, which are then placed in a humidified CO2 incubator at 37° C. overnight. The next day, 3 μl/well of 10× concentrated drug is added and the plates are returned to the incubator for 72 hr. After 72 hr incubation, plates are removed and […] CellTiterblue (Promega) viability reagent is added. Plates are returned to the incubator for 3 hr, after which it is fluorescence measurements are read on the Victor X3 plate reader (Perkin Elmer). Data are analyzed using Excel (Microsoft), and GI50 values are determined using Prism (Graphpad).

AN3_CA = experiment: CellTiterblue viability, 72 hr, AN3_CA; assay type: cell-based; details: Homo sapiens, AN3-CA, AN3_CA cells
Protocol: as §1

Ret kinase = target: T4, Ret kinase (Homo sapiens, UniProt P07949); experiment: KinaseProfiler kinase inhibition assay, Ret; assay type: biochemical; details: 1 μM compound
T4 construct: purchased Millipore (KinaseProfiler Service)
T4 sequence (P07949 29-1114): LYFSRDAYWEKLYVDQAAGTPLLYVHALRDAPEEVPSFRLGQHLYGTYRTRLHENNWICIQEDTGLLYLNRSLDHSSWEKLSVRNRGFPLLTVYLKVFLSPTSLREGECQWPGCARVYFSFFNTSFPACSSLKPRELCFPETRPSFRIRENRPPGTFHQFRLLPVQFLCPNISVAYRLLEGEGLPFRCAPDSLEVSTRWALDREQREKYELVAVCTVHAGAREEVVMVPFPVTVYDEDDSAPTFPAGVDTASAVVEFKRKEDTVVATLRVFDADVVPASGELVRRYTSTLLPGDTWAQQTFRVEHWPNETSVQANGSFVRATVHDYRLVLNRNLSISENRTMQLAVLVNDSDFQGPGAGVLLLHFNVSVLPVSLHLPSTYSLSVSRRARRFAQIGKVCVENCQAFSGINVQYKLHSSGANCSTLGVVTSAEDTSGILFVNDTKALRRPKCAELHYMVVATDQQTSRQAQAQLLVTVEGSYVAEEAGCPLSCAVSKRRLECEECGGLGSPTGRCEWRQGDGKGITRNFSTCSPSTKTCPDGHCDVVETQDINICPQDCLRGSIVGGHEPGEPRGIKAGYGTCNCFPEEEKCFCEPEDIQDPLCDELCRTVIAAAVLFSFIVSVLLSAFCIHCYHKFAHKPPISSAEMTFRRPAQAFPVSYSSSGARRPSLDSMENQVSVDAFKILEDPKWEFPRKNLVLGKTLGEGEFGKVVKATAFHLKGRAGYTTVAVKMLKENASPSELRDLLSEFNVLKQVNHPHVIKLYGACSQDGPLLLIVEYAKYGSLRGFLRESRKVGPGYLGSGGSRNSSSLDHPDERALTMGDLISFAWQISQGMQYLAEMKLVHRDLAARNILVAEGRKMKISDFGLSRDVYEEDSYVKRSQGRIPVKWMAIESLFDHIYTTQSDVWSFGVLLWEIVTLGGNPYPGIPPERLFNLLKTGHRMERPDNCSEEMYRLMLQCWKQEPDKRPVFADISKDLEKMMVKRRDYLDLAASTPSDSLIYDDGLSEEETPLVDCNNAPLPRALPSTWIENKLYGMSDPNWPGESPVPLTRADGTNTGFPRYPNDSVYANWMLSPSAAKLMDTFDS

Tie2 = target: T5, Tie2 (Homo sapiens, UniProt Q02763); experiment: KinaseProfiler kinase inhibition assay, Tie2; assay type: biochemical; details: 1 μM compound
T5 construct: purchased Millipore (KinaseProfiler Service)
T5 sequence (Q02763 23-1124): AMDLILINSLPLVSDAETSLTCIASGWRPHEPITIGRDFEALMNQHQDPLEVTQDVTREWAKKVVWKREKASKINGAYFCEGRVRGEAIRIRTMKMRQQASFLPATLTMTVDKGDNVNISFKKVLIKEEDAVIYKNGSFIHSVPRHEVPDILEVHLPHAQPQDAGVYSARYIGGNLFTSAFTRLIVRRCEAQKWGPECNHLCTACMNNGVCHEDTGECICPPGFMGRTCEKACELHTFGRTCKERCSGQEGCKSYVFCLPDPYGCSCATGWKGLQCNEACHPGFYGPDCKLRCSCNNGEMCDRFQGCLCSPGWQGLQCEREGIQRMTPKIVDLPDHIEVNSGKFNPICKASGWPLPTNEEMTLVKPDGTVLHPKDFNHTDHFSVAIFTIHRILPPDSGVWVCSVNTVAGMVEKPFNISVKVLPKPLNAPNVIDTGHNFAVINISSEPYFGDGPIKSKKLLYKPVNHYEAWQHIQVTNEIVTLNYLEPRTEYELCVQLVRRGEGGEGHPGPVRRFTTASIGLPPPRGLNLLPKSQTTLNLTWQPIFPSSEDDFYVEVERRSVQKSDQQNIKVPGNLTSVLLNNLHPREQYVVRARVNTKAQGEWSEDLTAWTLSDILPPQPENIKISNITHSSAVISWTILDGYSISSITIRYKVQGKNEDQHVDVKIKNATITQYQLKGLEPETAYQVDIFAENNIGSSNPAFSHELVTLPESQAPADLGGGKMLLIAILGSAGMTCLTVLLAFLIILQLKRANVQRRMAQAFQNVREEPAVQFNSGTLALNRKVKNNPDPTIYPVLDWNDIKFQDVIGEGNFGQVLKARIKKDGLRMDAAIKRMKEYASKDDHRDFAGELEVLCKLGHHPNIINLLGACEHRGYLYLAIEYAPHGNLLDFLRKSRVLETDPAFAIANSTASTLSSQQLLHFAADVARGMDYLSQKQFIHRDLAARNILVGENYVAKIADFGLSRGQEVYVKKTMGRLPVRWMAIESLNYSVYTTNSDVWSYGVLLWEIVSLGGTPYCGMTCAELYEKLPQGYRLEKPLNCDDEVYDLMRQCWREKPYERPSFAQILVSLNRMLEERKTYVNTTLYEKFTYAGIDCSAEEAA

Kato III = experiment: CellTiterblue viability, 72 hr, Kato III; assay type: cell-based; details: Homo sapiens, Kato III cells
Protocol: as §1

KDR kinase = target: T6, KDR kinase (Homo sapiens, UniProt P35968); experiment: KinaseProfiler kinase inhibition assay, KDR; assay type: biochemical; details: 1 μM compound
T6 construct: purchased Millipore (KinaseProfiler Service)
T6 sequence (P35968 20-1356): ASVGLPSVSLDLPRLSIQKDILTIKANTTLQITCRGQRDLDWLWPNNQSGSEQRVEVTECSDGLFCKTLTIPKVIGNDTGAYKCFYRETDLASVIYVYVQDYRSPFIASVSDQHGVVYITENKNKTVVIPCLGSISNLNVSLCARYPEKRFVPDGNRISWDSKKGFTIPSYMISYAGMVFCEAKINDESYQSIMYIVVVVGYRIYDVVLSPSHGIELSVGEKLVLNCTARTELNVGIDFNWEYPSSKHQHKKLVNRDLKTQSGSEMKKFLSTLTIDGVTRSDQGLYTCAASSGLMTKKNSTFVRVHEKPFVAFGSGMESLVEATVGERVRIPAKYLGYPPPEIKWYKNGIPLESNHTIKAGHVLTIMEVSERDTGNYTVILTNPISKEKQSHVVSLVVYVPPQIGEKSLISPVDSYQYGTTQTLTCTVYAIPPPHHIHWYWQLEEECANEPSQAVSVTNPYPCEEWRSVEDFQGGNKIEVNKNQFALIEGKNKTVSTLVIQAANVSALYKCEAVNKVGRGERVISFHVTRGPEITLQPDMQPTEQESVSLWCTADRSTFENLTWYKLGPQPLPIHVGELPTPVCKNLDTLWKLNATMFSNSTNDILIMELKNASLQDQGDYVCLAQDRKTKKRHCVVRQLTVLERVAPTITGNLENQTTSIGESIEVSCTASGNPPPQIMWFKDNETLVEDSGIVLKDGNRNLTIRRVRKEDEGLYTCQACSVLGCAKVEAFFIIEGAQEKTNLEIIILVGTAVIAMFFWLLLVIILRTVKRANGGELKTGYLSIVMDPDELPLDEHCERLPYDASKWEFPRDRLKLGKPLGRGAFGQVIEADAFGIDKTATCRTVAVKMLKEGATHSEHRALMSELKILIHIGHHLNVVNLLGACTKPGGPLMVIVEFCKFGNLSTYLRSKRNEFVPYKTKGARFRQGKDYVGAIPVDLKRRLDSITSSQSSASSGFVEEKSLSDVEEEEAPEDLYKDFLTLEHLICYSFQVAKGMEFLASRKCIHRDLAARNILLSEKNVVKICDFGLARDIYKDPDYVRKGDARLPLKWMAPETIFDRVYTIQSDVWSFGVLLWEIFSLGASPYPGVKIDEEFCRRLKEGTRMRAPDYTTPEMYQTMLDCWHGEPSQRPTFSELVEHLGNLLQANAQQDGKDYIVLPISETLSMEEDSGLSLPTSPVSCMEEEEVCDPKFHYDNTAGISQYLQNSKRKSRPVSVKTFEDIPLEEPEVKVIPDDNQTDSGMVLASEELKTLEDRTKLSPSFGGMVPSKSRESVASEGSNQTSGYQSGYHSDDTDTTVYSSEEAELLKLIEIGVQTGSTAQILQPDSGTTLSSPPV

RT112 = experiment: CellTiterblue viability, 72 hr, RT112; assay type: cell-based; details: Homo sapiens, RT-112, RT112 cells
Protocol: as §1

Abl kinase = target: T7, Abl kinase (Homo sapiens, UniProt P00519); experiment: KinaseProfiler kinase inhibition assay, Abl; assay type: biochemical; details: 1 μM compound
T7 construct: purchased Millipore (KinaseProfiler Service)
T7 sequence (P00519 whole entry): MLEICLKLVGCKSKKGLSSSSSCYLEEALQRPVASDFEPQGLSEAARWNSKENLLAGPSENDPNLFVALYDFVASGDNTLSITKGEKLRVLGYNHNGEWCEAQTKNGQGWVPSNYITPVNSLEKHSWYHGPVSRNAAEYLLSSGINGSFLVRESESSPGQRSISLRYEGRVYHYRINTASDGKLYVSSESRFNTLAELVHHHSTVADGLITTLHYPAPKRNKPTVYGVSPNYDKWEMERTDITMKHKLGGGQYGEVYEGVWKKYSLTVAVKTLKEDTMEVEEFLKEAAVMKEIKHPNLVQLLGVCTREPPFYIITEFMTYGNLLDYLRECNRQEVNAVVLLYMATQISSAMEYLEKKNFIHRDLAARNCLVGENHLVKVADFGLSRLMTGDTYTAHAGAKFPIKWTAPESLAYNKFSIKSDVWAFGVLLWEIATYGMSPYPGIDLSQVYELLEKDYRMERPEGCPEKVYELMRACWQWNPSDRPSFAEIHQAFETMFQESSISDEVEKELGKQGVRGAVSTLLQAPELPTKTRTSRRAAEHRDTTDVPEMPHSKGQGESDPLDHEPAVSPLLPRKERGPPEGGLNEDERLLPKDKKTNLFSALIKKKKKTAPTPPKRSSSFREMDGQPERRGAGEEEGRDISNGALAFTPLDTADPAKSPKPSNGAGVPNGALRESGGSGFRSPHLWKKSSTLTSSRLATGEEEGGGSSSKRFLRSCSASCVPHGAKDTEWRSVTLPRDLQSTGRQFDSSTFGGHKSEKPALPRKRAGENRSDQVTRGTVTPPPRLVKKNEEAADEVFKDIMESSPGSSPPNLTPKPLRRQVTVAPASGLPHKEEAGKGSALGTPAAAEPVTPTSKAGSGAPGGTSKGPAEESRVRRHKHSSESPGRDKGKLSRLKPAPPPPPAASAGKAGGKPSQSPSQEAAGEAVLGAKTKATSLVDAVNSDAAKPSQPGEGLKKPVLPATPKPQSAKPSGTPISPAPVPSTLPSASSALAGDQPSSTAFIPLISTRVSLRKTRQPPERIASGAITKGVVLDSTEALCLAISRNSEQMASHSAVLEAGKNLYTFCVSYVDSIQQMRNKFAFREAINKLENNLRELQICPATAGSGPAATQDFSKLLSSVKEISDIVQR

FGFR1 kinase = target: T8, FGFR1 kinase (Homo sapiens, UniProt P11362); experiment: KinaseProfiler kinase inhibition assay, FGFR1; assay type: biochemical; details: 1 μM compound
T8 construct: purchased Millipore (KinaseProfiler Service)

MDA-MB134 = experiment: CellTiterblue viability, 72 hr, MDA-MB134; assay type: cell-based; details: MDA-MB134 cells
Protocol: as §1

SMILES	inhibition at 1 µM (c-Src kinase)	EC50 (phospho-FGFR2)	inhibition at 1 µM (Alk kinase)	GI50 (KG1a)	GI50 (AN3_CA)	inhibition at 1 µM (Ret kinase)	inhibition at 1 µM (Tie2)	GI50 (Kato III)	inhibition at 1 µM (KDR kinase)	GI50 (RT112)	inhibition at 1 µM (Abl kinase)	inhibition at 1 µM (FGFR1 kinase)	GI50 (MDA-MB134)
Cc1cc2c(F)c(Oc3ncnc(Nc4ccc(N5CCN(C)CC5)cn4)c3Cl)ccc2[nH]1 [Compound 34, 5-chloro-6-((4-fluoro-2-methyl-1H-indol-5-yl)oxy)-N-(5-(4-methylpiperazin-1-yl)pyridin-2-yl)pyrimidin-4-amine]	9%	> 100 nM	15%	> 100 nM	> 500 nM	25%	18%	229 nM	96%	> 100 nM	19%	98%	–
Cc1cc2c(F)c(Oc3cc(Nc4ccc(N5CCNCC5)cc4)ncn3)cc(F)c2[nH]1 [Compound 51]	70%	38 nM	54%	> 100 nM	406 nM	74%	82%	169 nM	97%	> 100 nM	73%	101%	–
Cc1cc2c(F)c(Oc3ncnc(Nc4ccc(N5CCN(C)CC5)cc4)c3C#N)ccc2[nH]1 [Compound 54]	8%	–	-30%	4 nM	214 nM	-30%	21%	12 nM	97%	103 nM	3%	101%	20 nM
CCN1CCN(c2ccc(Nc3ncnc(Oc4ccc5[nH]c(C)cc5c4F)c3C#N)nc2)CC1 [Compound 55]	10%	–	-23%	7 nM	98 nM	-48%	31%	319 nM	91%	> 500 nM	2%	99%	78 nM
Cc1cc2c(F)c(Oc3ncnc(Nc4ccc(N5CCNCC5)cc4)c3C#N)ccc2[nH]1 [Compound 57]	12%	–	-40%	4 nM	> 500 nM	-26%	30%	51 nM	94%	33 nM	-6%	99%	8 nM
CCN1CCN(c2ccc(Nc3ncnc(Oc4cc(F)c5[nH]c(C)cc5c4F)c3C#N)cc2)CC1 [Compound 60]	3%	–	3%	5 nM	> 500 nM	-42%	24%	26 nM	93%	47 nM	-7%	100%	18 nM
CCN1CCN(c2ccc(Nc3ncnc(Oc4cc(F)c5[nH]c(C)cc5c4F)c3C#N)nc2)CC1 [Compound 61]	-9%	–	-41%	4 nM	> 500 nM	-13%	23%	77 nM	51%	11 nM	3%	100%	28 nM
CCN1CCN(c2ccc(Nc3ncnc(Oc4ccc5c(cc(C)n5C)c4F)c3F)cc2)CC1 [Compound 63]	1%	–	-3%	> 500 nM	> 500 nM	-41%	13%	> 500 nM	10%	> 500 nM	3%	91%	282 nM
